Activity calls are given as the source filed them. The rule behind the calls is not given here.
Tested on: CCRIS mutagenicity, Ames/micronucleus/aberration tests
Assay: CCRIS mutagenicity studies
[1] = Test System: AMES SALMONELLA TYPHIMURIUM, Strain/Indicator: TA97, Metabolic Activation: NONE, Method: PREINCUBATION
[2] = Test System: AMES SALMONELLA TYPHIMURIUM, Strain/Indicator: TA98, Metabolic Activation: RAT, LIVER, S-9, AROCLOR 1254 (10%), Method: PREINCUBATION
[3] = Test System: AMES SALMONELLA TYPHIMURIUM, Strain/Indicator: TA98, Metabolic Activation: RAT, LIVER, S-9, AROCLOR 1254 (30%), Method: PREINCUBATION
[4] = Test System: AMES SALMONELLA TYPHIMURIUM, Strain/Indicator: TA100, Metabolic Activation: NONE, Method: PREINCUBATION
[5] = Test System: AMES SALMONELLA TYPHIMURIUM, Strain/Indicator: TA100, Metabolic Activation: RAT, LIVER, S-9, AROCLOR 1254 (10%), Method: PREINCUBATION
[6] = Test System: AMES SALMONELLA TYPHIMURIUM, Strain/Indicator: TA100, Metabolic Activation: RAT, LIVER, S-9, AROCLOR 1254 (30%), Method: PREINCUBATION
[7] = Test System: AMES SALMONELLA TYPHIMURIUM, Strain/Indicator: TA1535, Metabolic Activation: NONE, Method: PREINCUBATION
[8] = Test System: AMES SALMONELLA TYPHIMURIUM, Strain/Indicator: TA1537, Metabolic Activation: HAMSTER, LIVER, S-9, AROCLOR 1254 (30%), Method: PREINCUBATION
[9] = Test System: AMES SALMONELLA TYPHIMURIUM, Strain/Indicator: TA1537, Metabolic Activation: NONE, Method: PREINCUBATION
[10] = Test System: AMES SALMONELLA TYPHIMURIUM, Strain/Indicator: TA1537, Metabolic Activation: RAT, LIVER, S-9, AROCLOR 1254 (30%), Method: PREINCUBATION

Measured: mutagenic call

Cc1ccccc1Br
inactive: Test System: AMES SALMONELLA TYPHIMURIUM, Strain/Indicator: TA97, Metabolic Activation: HAMSTER, LIVER, S-9, AROCLOR 1254 (10%), Method: PREINCUBATION inactive; negative | Test System: AMES SALMONELLA TYPHIMURIUM, Strain/Indicator: TA97, Metabolic Activation: HAMSTER, LIVER, S-9, AROCLOR 1254 (30%), Method: PREINCUBATION inactive; negative | [1] inactive; negative | Test System: AMES SALMONELLA TYPHIMURIUM, Strain/Indicator: TA97, Metabolic Activation: RAT, LIVER, S-9, AROCLOR 1254 (10%), Method: PREINCUBATION inactive; negative | Test System: AMES SALMONELLA TYPHIMURIUM, Strain/Indicator: TA97, Metabolic Activation: RAT, LIVER, S-9, AROCLOR 1254 (30%), Method: PREINCUBATION inactive; negative | Test System: AMES SALMONELLA TYPHIMURIUM, Strain/Indicator: TA98, Metabolic Activation: HAMSTER, LIVER, S-9, AROCLOR 1254 (10%), Method: PREINCUBATION inactive; negative | Test System: AMES SALMONELLA TYPHIMURIUM, Strain/Indicator: TA98, Metabolic Activation: HAMSTER, LIVER, S-9, AROCLOR 1254 (30%), Method: PREINCUBATION inactive; negative | Test System: AMES SALMONELLA TYPHIMURIUM, Strain/Indicator: TA98, Metabolic Activation: NONE, Method: PREINCUBATION inactive; negative | Test System: AMES SALMONELLA TYPHIMURIUM, Strain/Indicator: TA98, Metabolic Activation: RAT LIVER S-9, PHENOBARBITAL AND BETA-NAPHTHOFLAVONE, Method: PREINCUBATION inactive; negative | [2] inactive; negative | [3] inactive; negative | Test System: AMES SALMONELLA TYPHIMURIUM, Strain/Indicator: TA100, Metabolic Activation: HAMSTER, LIVER, S-9, AROCLOR 1254 (10%), Method: PREINCUBATION inactive; negative | Test System: AMES SALMONELLA TYPHIMURIUM, Strain/Indicator: TA100, Metabolic Activation: HAMSTER, LIVER, S-9, AROCLOR 1254 (30%), Method: PREINCUBATION inactive; negative | [4] inactive; negative | Test System: AMES SALMONELLA TYPHIMURIUM, Strain/Indicator: TA100, Metabolic Activation: RAT LIVER S-9, PHENOBARBITAL AND BETA-NAPHTHOFLAVONE, Method: PREINCUBATION inactive; negative | [5] inactive; negative | [6] inactive; negative | Test System: AMES SALMONELLA TYPHIMURIUM, Strain/Indicator: TA102, Metabolic Activation: NONE, Method: PREINCUBATION inactive; negative | Test System: AMES SALMONELLA TYPHIMURIUM, Strain/Indicator: TA102, Metabolic Activation: RAT LIVER S-9, PHENOBARBITAL AND BETA-NAPHTHOFLAVONE, Method: PREINCUBATION inactive; negative | Test System: AMES SALMONELLA TYPHIMURIUM, Strain/Indicator: TA104, Metabolic Activation: NONE, Method: PREINCUBATION inactive; negative | Test System: AMES SALMONELLA TYPHIMURIUM, Strain/Indicator: TA104, Metabolic Activation: RAT LIVER S-9, PHENOBARBITAL AND BETA-NAPHTHOFLAVONE, Method: PREINCUBATION inactive; negative | Test System: AMES SALMONELLA TYPHIMURIUM, Strain/Indicator: TA1535, Metabolic Activation: HAMSTER, LIVER, S-9, AROCLOR 1254 (10%), Method: PREINCUBATION inactive; negative | Test System: AMES SALMONELLA TYPHIMURIUM, Strain/Indicator: TA1535, Metabolic Activation: HAMSTER, LIVER, S-9, AROCLOR 1254 (30%), Method: PREINCUBATION inactive; negative | [7] inactive; negative | Test System: AMES SALMONELLA TYPHIMURIUM, Strain/Indicator: TA1535, Metabolic Activation: RAT LIVER S-9, PHENOBARBITAL AND BETA-NAPHTHOFLAVONE, Method: PREINCUBATION inactive; negative | Test System: AMES SALMONELLA TYPHIMURIUM, Strain/Indicator: TA1535, Metabolic Activation: RAT, LIVER, S-9, AROCLOR 1254 (10%), Method: PREINCUBATION inactive; negative | Test System: AMES SALMONELLA TYPHIMURIUM, Strain/Indicator: TA1535, Metabolic Activation: RAT, LIVER, S-9, AROCLOR 1254 (30%), Method: PREINCUBATION inactive; negative | [8] inactive; negative | [9] inactive; negative | Test System: AMES SALMONELLA TYPHIMURIUM, Strain/Indicator: TA1537, Metabolic Activation: RAT LIVER S-9, PHENOBARBITAL AND BETA-NAPHTHOFLAVONE, Method: PREINCUBATION inactive; negative | [10] inactive; negative | Test System: E.COLI, Strain/Indicator: WP2UVRA/PKM101, Metabolic Activation: NONE, Method: PREINCUBATION inactive; negative | Test System: E.COLI, Strain/Indicator: WP2UVRA/PKM101, Metabolic Activation: RAT LIVER S-9, PHENOBARBITAL AND BETA-NAPHTHOFLAVONE, Method: PREINCUBATION inactive; negative | Test System: E.COLI, Strain/Indicator: WP2UVRA, Metabolic Activation: NONE, Method: PREINCUBATION inactive; negative | Test System: E.COLI, Strain/Indicator: WP2UVRA, Metabolic Activation: RAT LIVER S-9, PHENOBARBITAL AND BETA-NAPHTHOFLAVONE, Method: PREINCUBATION inactive; negative

Cc1ccc(S(=O)(=O)NC2CCCCC2)cc1
inactive: Test System: AMES SALMONELLA TYPHIMURIUM, Strain/Indicator: TA97, Metabolic Activation: HAMSTER, LIVER, S-9, AROCLOR 1254 (10 OR 30%), Method: PREINCUBATION inactive; negative | [1] inactive; negative | Test System: AMES SALMONELLA TYPHIMURIUM, Strain/Indicator: TA97, Metabolic Activation: RAT, LIVER, S-9, AROCLOR 1254 (10 OR 30%), Method: PREINCUBATION inactive; negative | Test System: AMES SALMONELLA TYPHIMURIUM, Strain/Indicator: TA98, Metabolic Activation: HAMSTER, LIVER, S-9, AROCLOR 1254 (10 OR 30%), Method: PREINCUBATION inactive; negative | [2] inactive; negative | [3] inactive; negative | Test System: AMES SALMONELLA TYPHIMURIUM, Strain/Indicator: TA100, Metabolic Activation: HAMSTER, LIVER, S-9, AROCLOR 1254 (10 OR 30%), Method: PREINCUBATION inactive; negative | [4] inactive; negative | [5] inactive; negative | [6] inactive; negative | Test System: AMES SALMONELLA TYPHIMURIUM, Strain/Indicator: TA1535, Metabolic Activation: HAMSTER, LIVER, S-9, AROCLOR 1254 (10 OR 30%), Method: PREINCUBATION inactive; negative | [7] inactive; negative | Test System: AMES SALMONELLA TYPHIMURIUM, Strain/Indicator: TA1535, Metabolic Activation: RAT, LIVER, S-9, AROCLOR 1254 (10 OR 30%), Method: PREINCUBATION inactive; negative | [8] inactive; negative | [9] inactive; negative | [10] inactive; negative

O=[N+]([O-])c1c2ccccc2cc2c3c(ccc12)[C@@H](O)[C@H](O)C=C3
inactive: Test System: AMES SALMONELLA TYPHIMURIUM, Strain/Indicator: TA100, Metabolic Activation: NONE, Method: STANDARD PLATE inactive; negative
active: Test System: AMES SALMONELLA TYPHIMURIUM, Strain/Indicator: TA98, Metabolic Activation: NONE, Method: STANDARD PLATE active; positive
